Legend:
CK1ϵ = CK1ϵ (Homo sapiens, UniProt P49674); test: CK1ϵ kinase assay (Caliper LABCHIP electrophoretic separation of fluoresceinated peptide substrate and product); assay type: biochemical; conditions: 200 pM CK1ϵ, 50 μM ATP, 1.5 μM peptide substrate, 22 hours at room temperature; read-out: CK1ε (IC50)
Procedure: (§1) CK1ϵ and CK1δ Kinase Assays
(§2) The kinase assay was performed in V-bottom 384-well plates.
(§3) The reaction was incubated at room temperature for 22 hours and terminated by adding 45 μl of 35 mM EDTA to each sample. The reaction mixture was analyzed on the Caliper LABCHIP®3000 (Caliper, Hopkinton, Mass.) by electrophoretic separation of the unphosphorylated substrate and phosphorylated product. […] Compounds were dissolved at 10 mM in dimethylsulfoxide (DMSO) and evaluated at eleven concentrations. IC50 values were derived by non-linear regression analysis.

CK1δ = CK1δ (Homo sapiens, UniProt P48730); test: CK1δ kinase assay (Caliper LABCHIP electrophoretic separation of fluoresceinated peptide substrate and product); assay type: biochemical; conditions: 200 pM CK1δ, 50 μM ATP, 1.5 μM peptide substrate, 22 hours at room temperature
Procedure: as §1, §2, §3

Chain of CK1ϵ (P49674 whole entry): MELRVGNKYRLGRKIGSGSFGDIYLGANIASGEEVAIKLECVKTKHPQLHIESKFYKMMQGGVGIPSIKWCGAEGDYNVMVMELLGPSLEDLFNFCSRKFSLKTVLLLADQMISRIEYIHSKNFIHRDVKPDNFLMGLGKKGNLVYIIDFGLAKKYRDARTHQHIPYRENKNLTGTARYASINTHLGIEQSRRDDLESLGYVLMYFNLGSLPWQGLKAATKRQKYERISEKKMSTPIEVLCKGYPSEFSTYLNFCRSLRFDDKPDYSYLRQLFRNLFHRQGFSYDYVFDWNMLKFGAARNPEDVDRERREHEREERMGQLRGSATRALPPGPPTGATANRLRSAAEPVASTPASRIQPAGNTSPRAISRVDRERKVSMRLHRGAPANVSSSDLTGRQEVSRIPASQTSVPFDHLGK
Chain of CK1δ (P48730 whole entry): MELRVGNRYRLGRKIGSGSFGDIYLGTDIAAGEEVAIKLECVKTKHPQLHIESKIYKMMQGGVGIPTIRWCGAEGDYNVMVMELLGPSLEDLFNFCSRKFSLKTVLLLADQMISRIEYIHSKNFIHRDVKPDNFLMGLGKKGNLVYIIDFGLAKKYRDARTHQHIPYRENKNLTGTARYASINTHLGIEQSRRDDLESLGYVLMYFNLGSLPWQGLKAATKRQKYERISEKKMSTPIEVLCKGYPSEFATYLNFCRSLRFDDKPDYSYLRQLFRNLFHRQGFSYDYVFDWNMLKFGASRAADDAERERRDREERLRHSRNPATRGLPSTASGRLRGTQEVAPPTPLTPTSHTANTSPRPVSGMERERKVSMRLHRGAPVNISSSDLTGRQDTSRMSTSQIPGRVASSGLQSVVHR

| SMILES | IC50 (CK1ϵ) | IC50 (CK1δ) |
| --- | --- | --- |
| O=C(Nc1cn2nc(-c3c(-c4ccc(F)cc4)nn4c3CN(C(=O)Nc3ccc(C(F)(F)F)cc3)CC4)ccc2n1)c1ccnc(F)c1 [Example 47, 3-(2-(2-Fluoroisonicotinamido)imidazo[1,2-b]pyridazin-6-yl)-2-(4-fluorophenyl)-N-(4-(trifluoromethyl)phenyl)-6,7-dihydropyrazolo[1,5-a]pyrazine-5(4H)-carboxamide] | 146 nM | 12 nM |
| O=C(Nc1cn2nc(-c3c(-c4ccc(F)cc4)nn4c3CN(C(=O)NC3CCCC3)CC4)ccc2n1)c1ccnc(F)c1 [Example 44, N-Cyclopentyl-3-(2-(2-fluoroisonicotinamido)imidazo [1,2-b]pyridazin-6-yl)-2-(4-fluorophenyl)-6,7-dihydropyrazolo[1,5-a]pyrazine-5(4H)-carboxamide] | 13.9 nM | 2 nM |
| O=C(Nc1cn2nc(-c3c(-c4ccc(F)cc4)nn4c3CNCC4)ccc2n1)c1ccnc(F)c1 [Example 1, 2-Fluoro-N-(6-(2-(4-fluorophenyl)-4,5,6,7-tetrahydropyrazolo[1,5-a]pyrazin-3-yl)imidazo[1,2-b]pyridazin-2-yl)isonicotinamide] | 3.7 nM | 0.5 nM |
| O=C(Nc1cn2nc(-c3c(-c4ccc(F)cc4)nn4c3CN(S(=O)(=O)Cc3ccccc3)CC4)ccc2n1)c1ccnc(F)c1 [Example 40, N-(6-(5-(Benzylsulfonyl)-2-(4-fluorophenyl)-4,5,6,7-tetrahydropyrazolo[1,5-a]pyrazin-3-yl)imidazo[1,2-b]pyridazin-2-yl)-2-fluoroisonicotinamide] | 10.3 nM | 2.8 nM |
| CC1(NC(=O)N2CCn3nc(-c4ccc(F)cc4)c(-c4ccc5nc(NC(=O)c6ccnc(F)c6)cn5n4)c3C2)CC1 [Example 52, 3-(2-(2-Fluoroisonicotinamido)imidazo[1,2-b]pyridazin-6-yl)-2-(4-fluorophenyl)-N-(1-methylcyclopropyl)-6,7-dihydropyrazolo[1,5-a] pyrazine-5(4H)-carboxamide] | 7.7 nM | 0.9 nM |
| O=C(Nc1cn2nc(-c3c(-c4ccc(F)cc4)nn4c3CN(S(=O)(=O)C3CC3)CC4)ccc2n1)c1ccnc(F)c1 [Example 36, N-(6-(5-(Cyclopropylsulfonyl)-2-(4-fluorophenyl)-4,5,6,7-tetrahydropyrazolo[1,5-a]pyrazin-3-yl)imidazo[1,2-b]pyridazin-2-yl)-2-fluoroisonicotinamide] | 1.2 nM | 0.1 nM |
| O=C(Nc1cn2nc(-c3c(-c4ccc(F)cc4)nn4c3CN(C(=O)NC35CC6CC(CC(C6)C3)C5)CC4)ccc2n1)c1ccnc(F)c1 [Example 45, N-(Adamantan-1-yl)-3-(2-(2-fluoroisonicotinamido)imidazo [1,2-b]pyridazin-6-yl)-2-(4-fluorophenyl)-6,7-dihydropyrazolo[1,5-a]pyrazine-5(4H)-carboxamide] | 154 nM | 19.2 nM |
| O=C(Nc1cn2nc(-c3c(-c4ccc(F)cc4)nn4c3CN(S(=O)(=O)c3cccc(F)c3)CC4)ccc2n1)c1ccnc(F)c1 [Example 38, 2-Fluoro-N-(6-(2-(4-fluorophenyl)-5-((3-fluorophenyl)sulfonyl)-4,5,6,7-tetrahydropyrazolo [1,5-a]pyrazin-3-yl)imidazo [1,2-b]pyridazin-2-yl) isonicotinamide] | 4.9 nM | 0.3 nM |
| CC(C)C(=O)N1CCn2nc(-c3ccc(F)cc3)c(-c3ccc4nc(NC(=O)c5ccnc(F)c5)cn4n3)c2C1 [Example 22, 2-Fluoro-N-(6-(2-(4-fluorophenyl)-5-isobutyryl-4,5,6,7-tetrahydropyrazolo[1,5-a]pyrazin-3-yl)imidazo[1,2-b]pyridazin-2-yl) isonicotinamide] | 3.1 nM | 0.6 nM |
| O=C(Nc1cn2nc(-c3c(-c4ccc(F)cc4)nn4ccccc34)ccc2n1)c1cc(F)nc(F)c1 [Example 61, 2,6-Difluoro-N-(6-(2-(4-fluorophenyl)pyrazolo[1,5-a]pyridin-3-yl)imidazo[1,2-b]pyridazin-2-yl)isonicotinamide] | 137 nM | 19.5 nM |
| CC(C)OC(=O)N1CCn2nc(-c3ccc(F)cc3)c(-c3ccc4nc(NC(=O)c5ccnc(F)c5)cn4n3)c2C1 [Example 34, Isopropyl 3-(2-(2-fluoroisonicotinamido)imidazo[1,2-b]pyridazin-6-yl)-2-(4-fluorophenyl)-6,7-dihydropyrazolo[1,5-a] pyrazine-5(4H)-carboxylate] | 6.5 nM | 1 nM |
| CC(=O)N1CCn2nc(-c3ccc(F)cc3)c(-c3ccc4nc(NC(=O)c5ccnc(F)c5)cn4n3)c2C1 [Example 12, N-(6-(5-Acetyl-2-(4-fluorophenyl)-4,5,6,7-tetrahydropyrazolo[1,5-a]pyrazin-3-yl)imidazo[1,2-b]pyridazin-2-yl)-2-fluoroisonicotinamide] | 2 nM | 0.3 nM |
| CS(=O)(=O)N1CCn2nc(-c3ccc(F)cc3)c(-c3ccc4nc(NC(=O)c5ccnc(F)c5)cn4n3)c2C1 [Example 35, 2-Fluoro-N-(6-(2-(4-fluorophenyl)-5-(methylsulfonyl)-4,5,6,7-tetrahydropyrazolo[1,5-a]pyrazin-3-yl)imidazo[1,2-b]pyridazin-2-yl)isonicotinamide] | 0.8 nM | 0.2 nM |
| Cc1nc(C(F)(F)F)ccc1C(=O)Nc1cn2nc(-c3c(-c4ccc(F)cc4)nn4c3CNCC4)ccc2n1 [Example 11, N-(6-(2-(4-Fluorophenyl)-4,5,6,7-tetrahydropyrazolo[1,5-a]pyrazin-3-yl)imidazo[1,2-b]pyridazin-2-yl)-2-methyl-6-(trifluoromethyl)nicotinamide] | 15.2 nM | 1.8 nM |
| O=C(Nc1cn2nc(-c3c(-c4ccc(F)cc4)nn4c3CN(CC(F)F)CC4)ccc2n1)c1ccnc(F)c1 [Example 32, N-(6-(5-(2,2-Difluoroethyl)-2-(4-fluorophenyl)-4,5,6,7-tetrahydropyrazolo[1,5-a]pyrazin-3-yl)imidazo[1,2-b]pyridazin-2-yl)-2-fluoroisonicotinamide] | 1.5 nM | 0.3 nM |
| O=C(Nc1cn2nc(-c3c(-c4ccc(F)cc4)nn4c3CN(C(=O)NC3CCCCC3)CC4)ccc2n1)c1ccnc(F)c1 [Example 43, N-Cyclohexyl-3-(2-(2-fluoroisonicotinamido)imidazo [1,2-b]pyridazin-6-yl)-2-(4-fluorophenyl)-6,7-dihydropyrazolo[1,5-a]pyrazine-5(4H)-carboxamide] | 24 nM | 1.6 nM |
| O=C(Nc1cn2nc(-c3c(-c4ccc(F)cc4)nn4c3CN(C(=O)CC(F)(F)F)CC4)ccc2n1)c1ccnc(F)c1 [Example 15, 2-Fluoro-N-(6-(2-(4-fluorophenyl)-5-(3,3,3-trifluoropropanoyl)-4,5,6,7-tetrahydropyrazolo [1,5-a]pyrazin-3-yl)imidazo[1,2-b]pyridazin-2-yl)isonicotinamide] | 0.7 nM | 0.2 nM |
| O=C(Nc1cn2nc(-c3c(-c4ccc(F)cc4)noc3C3CCOCC3)ccc2n1)c1ccnc(N2CCOCC2)c1 [Example 70, N-(6-(3-(4-Fluorophenyl)-5-(tetrahydro-2H-pyran-4-yl)isoxazol-4-yl)imidazo[1,2-b]pyridazin-2-yl)-2-morpholinoisonicotinamide] | 27.3 nM | 3.8 nM |
| O=C(Nc1cn2nc(-c3c(-c4ccc(F)cc4)nn4c3CNCC4)ccc2n1)c1ccnc(-c2cccnc2)c1 [Example 6, N-(6-(2-(4-Fluorophenyl)-4,5,6,7-tetrahydropyrazolo[1,5-a]pyrazin-3-yl)imidazo[1,2-b]pyridazin-2-yl)-[2,3′-bipyridine]-4-carboxamide] | 2.3 nM | 0.3 nM |
| O=C(Nc1cn2nc(-c3c(-c4ccc(F)cc4)nn4c3CCC4)ccc2n1)c1ccnc(F)c1 [Example 65, 2-Fluoro-N-(6-(2-(4-fluorophenyl)-5,6-dihydro-4H-pyrrolo[1,2-b]pyrazol-3-yl)imidazo[1,2-b]pyridazin-2-yl)isonicotinamide] | 4.7 nM | 0.4 nM |
| O=C(Nc1cn2nc(-c3c(-c4ccc(F)cc4)nn4c3COCC4)ccc2n1)c1cc(F)nc(F)c1 [Example 56, 2,6-Difluoro-N-(6-(2-(4-fluorophenyl)-6,7-dihydro-4H-pyrazolo[5,1-c][1,4]oxazin-3-yl)imidazo[1,2-b]pyridazin-2-yl) isonicotinamide] | 4 nM | 0.3 nM |
| O=C(Nc1cn2nc(-c3c(-c4ccc(F)cc4)nn4c3COCC4)ccc2n1)c1ccnc(N2CCOCC2)c1 [Example 55, N-(6-(2-(4-Fluorophenyl)-6,7-dihydro-4H-pyrazolo[5,1-c][1,4]oxazin-3-yl)imidazo[1,2-b]pyridazin-2-yl)-2-morpholinoisonicotinamide] | 2.4 nM | 0.3 nM |
| O=C(Nc1cn2nc(-c3c(-c4ccc(F)cc4)nn4c3CNCC4)ccc2n1)c1ccnc(N2CCOCC2)c1 [Example 4, N-(6-(2-(4-Fluorophenyl)-4,5,6,7-tetrahydropyrazolo[1,5-a]pyrazin-3-yl)imidazo[1,2-b]pyridazin-2-yl)-2-morpholinoisonicotinamide] | 1.3 nM | 0.3 nM |
| O=C(Nc1cn2nc(-c3c(-c4ccc(F)cc4)nn4c3CCCC4)ccc2n1)c1cc(F)nc(F)c1 [Example 64, 2,6-Difluoro-N-(6-(2-(4-fluorophenyl)-4,5,6,7-tetrahydropyrazolo[1,5-a]pyridin-3-yl)imidazo[1,2-b]pyridazin-2-yl) isonicotinamide] | 3.9 nM | 0.5 nM |
| CC(C)(C)NC(=O)N1CCn2nc(-c3ccc(F)cc3)c(-c3ccc4nc(NC(=O)c5ccnc(F)c5)cn4n3)c2C1 [Example 41, N-(tert-Butyl)-3-(2-(2-fluoroisonicotinamido)imidazo[1,2-b]pyridazin-6-yl)-2-(4-fluorophenyl)-6,7-dihydropyrazolo[1,5-a]pyrazine-5 (4)-carboxamide] | 20.5 nM | 2.8 nM |

— patent US9956220B2, “Imidazo-pyridazine derivatives as casein kinase 1 δ/ϵ inhibitors” (Bristol-Myers Squibb Company, priority 2014, dated 2018)
